The results in this text go back to patent US20240279233A1, “MACROCYCLIC TAK1 INHIBITORS” (Aqilion AB, priority 2021, published 2024).

In brackets after ≈: the same amount, converted by molar mass. Several values for one entry are separate records, joined by “and”; a condition that tells them apart may be missing. Equal entries are not always repeated. Where two headings read alike, the source gives them in different places.

For data set [1] the following is noted: amide bond, 14-membered ring.
Data set [2] can be described thus: Solubility assay in phosphate buffer. The following applies: phosphate buffer, pH 7.4, aqueous buffer, kinetic from dmso stock, Solubility (μM), phosphate buffer 100 mM, pH 7.4, room temperature, 20-24 h, LC-UV.
Protocol: The aqueous solubility of selected example compounds was determined as follows; 6 μL of DMSO stock solution of the selected example was added to 594 μL phosphate buffer (100 mM, pH 7.4). The resulting mixture was equilibrated over night (20-24 h, Alligator Shaker, room temperature). The mixture was then filtered (Millex LH 0.45 μm) and the concentration/solubility was determined by LC-UV quantification.
Data set [3] has as its target human recombinant TAK1-TAB1 Kinase (TAK1 (1-303) and TAB1 (437-end)) (Homo sapiens (Human), UniProt O43318). Description: TAK1 biochemical ADP-Glo kinase assay. The settings on record: MBP substrate. Put shortly:
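Inhibition of human recombinant TAK1-TAB1 kinase was measured with a Promega ADP-Glo luminescence assay in 384-well plates. Compounds in 5% DMSO were pre-incubated 10 min with 2 μl TAK1-TAB1 (7.5 ng/μl) in buffer of Tris pH 7.5, MgCl2, DTT and BSA. MBP substrate and ATP were then added for 1 hour at room temperature. ADP-Glo reagent and kinase detection substrate followed, luminescence was read on an Envision, and IC50 came from non-linear regression.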
On the technique in general: In ADP-Glo the light output rises with the ADP produced.

The mark [4] stands for this setting: 10 μM ATP, read-out: TAK1 Mean IC50 (nM) @ 10 μM ATP.
Setting [5] is: 1 mM ATP, read-out: TAK1 Mean IC50 (nM) @ 1 mM ATP.

Chain of human recombinant TAK1-TAB1 Kinase (TAK1 (1-303) and TAB1 (437-end)) (O43318 other isoform, or with tags, fused parts or gaps): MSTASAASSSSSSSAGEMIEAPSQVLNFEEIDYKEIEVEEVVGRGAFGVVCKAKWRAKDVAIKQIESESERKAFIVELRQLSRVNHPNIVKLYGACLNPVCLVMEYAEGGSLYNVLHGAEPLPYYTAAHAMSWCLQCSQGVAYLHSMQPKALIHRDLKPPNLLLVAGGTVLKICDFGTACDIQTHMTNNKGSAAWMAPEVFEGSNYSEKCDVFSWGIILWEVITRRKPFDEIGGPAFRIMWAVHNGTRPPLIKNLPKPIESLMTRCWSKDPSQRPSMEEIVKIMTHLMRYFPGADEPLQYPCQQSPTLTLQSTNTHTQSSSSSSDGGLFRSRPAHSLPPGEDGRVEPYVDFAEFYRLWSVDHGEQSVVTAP

In data set [1] (from CC(=O)c1cc(C(=O)N(C)C)c2c(c1)nc(NC(=O)c1cccc(C(=O)O)c1)n2[C@H](C)CCCCN, HATU/DIEA, THF, 0.49 mM, 25.0 °C, 120.0 h), `CC(=O)c1cc(C(=O)N(C)C)c2c(c1)nc1n2[C@H](C)CCCCNC(=O)c2cccc(c2)C(=O)N1` registered a ring closure, yield after HPLC of 34%. The molecule `CC1CCCCNC(=O)c2cccc(c2)C(=O)Nc2nc3cccc(-c4ccc[nH]c4=O)c3n21` (stereo not shown) had a ring closure, yield after HPLC in data set [1] (from CC(CCCCN)n1c(NC(=O)c2cccc(C(=O)O)c2)nc2cccc(-c3ccc[nH]c3=O)c21, TCFH/NMI, DMF, 3.6 mM, 1.0 h) of 21%. For the molecule `CC1CCCCNC(=O)c2cccc(c2)C(=O)Nc2nc3cccc(C(=O)N(C)C)c3n21` (stereo not shown), in data set [1] (from CC(CCCCN)n1c(NC(=O)c2cccc(C(=O)O)c2)nc2cccc(C(=O)N(C)C)c21, TCFH/NMI, MeCN/DMF, 1.6 mM, 1.0 h), the ring closure, yield after HPLC turned out to be 12%. In data set [1] (from CN(C)C(=O)c1cccc2nc(NC(=O)c3cccc(C(=O)O)c3)n(C3(CCCCN)CC3)c12, TCFH/NMI, MeCN/DMF, 0.31 mM, 25.0 °C, 16.0 h), `CN(C)C(=O)c1cccc2nc3n(c12)C1(CCCCNC(=O)c2cccc(c2)C(=O)N3)CC1` returned a ring closure, yield after HPLC of 18%. The molecule `CN1CCN(Cc2ccc3c(c2)nc2n3CCCCCNC(=O)c3cc(ccc3F)C(=O)N2)CC1` registered a ring closure, yield after HPLC in data set [1] (from CN1CCN(Cc2ccc3c(c2)nc(NC(=O)c2ccc(F)c(C(=O)O)c2)n3CCCCCN)CC1, TCFH/NMI, DMF/MeCN, 2.2 mM, 25.0 °C, 2.0 h) of 16%. For `C[C@@H]1CCCCNC(=O)c2cccc(c2)C(=O)Nc2nc3ccc(Cl)c(C(=O)N(C)C)c3n21`, the ring closure, yield after HPLC in data set [1] (from C[C@H](CCCCN)n1c(NC(=O)c2cccc(C(=O)O)c2)nc2ccc(Cl)c(C(=O)N(C)C)c21, HATU/DIEA, THF, 0.5 mM, 60.0 °C, 16.0 h) was 5.3% and 5.7%.

With `C[C@H]1CCCCNC(=O)c2cccc(c2)C(=O)Nc2nc3ccc(Cl)c(C(=O)N(C)C)c3n21`, the ring closure, yield after HPLC in data set [1] (from C[C@@H](CCCCN)n1c(NC(=O)c2cccc(C(=O)O)c2)nc2ccc(Cl)c(C(=O)N(C)C)c21, HATU/DIEA, THF, 0.5 mM, 60.0 °C, 16.0 h) is 7.1% and 6.3%. Take `Cc1noc(-c2cccc3nc4n(c23)[C@@H](C)CCCCNC(=O)c2cccc(c2)C(=O)N4)n1`: the ring closure, yield after HPLC in data set [1] (from Cc1noc(-c2cccc3nc(NC(=O)c4cccc(C(=O)O)c4)n([C@@H](C)CCCCN)c23)n1, TCFH/NMI, MeCN, 0.23 mM, 25.0 °C, 16.0 h) was 92%.

The term solubility denotes the concentration that dissolves in the medium under given conditions. Read a high solubility as much dissolved substance. Usually IC50 stands for the concentration at which inhibition is half-maximal. In turn, `C[C@H]1CCCCNC(=O)c2cccc(c2)C(=O)/N=C2\Nc3cccc(-c4cn(C)nn4)c3N21` [Example 87, (S,E)-11-methyl-1^7-(1-methyl-1H-1,2,3-triazol-4-yl)-1^2,1^3-dihydro-1^1H-2,6-diaza-1(2,1)-benzo[d]imidazola-4(1,3)-benzenacycloundecaphane-3,5-dione] yielded a solubility in data set [2] of 4.7 µM (≈ 2.08 µg/mL). For the same molecule, the figures for the half-inhibitory concentration (IC50) in data set [3] (setting [4]) and in data set [3] (setting [5]) were 5 nM and 9 nM, respectively. Molecule `CN1CCN(C(=O)c2ccc3nc4n(c3c2)CCCCCNC(=O)c2cccc(c2)C(=O)N4)CC1` [Example 97, (E)-1^6-(4-methylpiperazine-1-carbonyl)-1^2,1^3-dihydro-1^1H-2,6-diaza-1(2,1)-benzo[d]imidazola-4(1,3)-benzenacycloundecaphane-3,5-dione] yielded a solubility in data set [2] of 5 µM (≈ 2.37 µg/mL). The IC50 in data set [3] (setting [4]) came to 4 nM. In the same order, the values of `O=C1/N=C2\Nc3ccc(C(=O)N4CCN(C5COC5)CC4)cc3N2CCCCCNC(=O)c2cccc1c2` [Example 98, (E)-1^6-(4-(oxetan-3-yl)piperazine-1-carbonyl)-1^2,1^3-dihydro-1^1H-2,6-diaza-1(2,1)-benzo[d]imidazola-4(1,3)-benzenacycloundecaphane-3,5-dione] are 4.7 µM (≈ 2.43 µg/mL) and 5 nM. In the same order, the values of `O=C1/N=C2\Nc3ccc(C(=O)N4CCNCC4)cc3N2CCCCCNC(=O)c2cccc1c2` [Example 100, (E)-1^6-(piperazine-1-carbonyl)-1^2,1^3-dihydro-1^1H-2,6-diaza-1(2,1)-benzo[d]imidazola-4(1,3)-benzenacycloundecaphane-3,5-dione] are 83.1 µM (≈ 38.3 µg/mL) and 2 nM. `CN1CCN(Cc2ccc3c(c2)N2CCCCCNC(=O)c4cccc(c4)C(=O)/N=C/2N3)CC1` [Example 101, (E)-1^6-((4-methylpiperazin-1-yl)methyl)-1^2,1^3-dihydro-1^1H-2,6-diaza-1(2,1)-benzo[d]imidazola-4(1,3)-benzenacycloundecaphane-3,5-dione] registered a solubility in data set [2] of 20.8 µM (≈ 9.58 µg/mL). Also, in data set [3] (setting [4]), the IC50 came out at 8 nM.

As for `C[C@H]1CCCCNC(=O)c2cccc(c2)C(=O)/N=C2\Nc3cc(C(C)(C)O)cc(C(=O)N(C)C)c3N21` [Example 123, (S,E)-1^5-(2-hydroxypropan-2-yl)-N,N,11-trimethyl-3,5-dioxo-1^2,1^3-dihydro-1^1H-2,6-diaza-1(2,1)-benzo[d]imidazola-4(1,3)-benzenacycloundecaphane-1^7-carboxamide], the solubility in data set [2] came to 90 µM (≈ 44.2 µg/mL). Further, the half-inhibitory concentration (IC50) in data set [3] (setting [4]) is 4 nM; in data set [3] (setting [5]) it was 11 nM.
